The values below come from US12570648B2, “6,7-dihydro-5H-pyrido[2,3-c]pyridazine derivatives and related compounds as Bcl-xL protein inhibitors and pro-apoptotic agents for treating cancer” (LES LABORATOIRES SERVIER, priority 2019, dated 2026).

The target of experiment [1] is His-His-(EK)-hsBCLXL(2-197)[N197C] (Homo sapiens (Human), UniProt Q07817, N197C). Description: Fluorescence quenching assay. The following applies: 1 nM Cy5-labelled protein, 400 nM PUMA peptide, 2 hours at 23° C.; KI determined from IC50. The experiment is classed as binding. The text has this:
Fluorescence quenching assay measures the change in fluorescence intensity of C-terminally Cy5-labelled BCL-xL protein, His-His-(EK)-hsBCLXL(2-197)[N197C] (UniProtKB®
which is linked in C-terminal region to the amino acid X which corresponds to a cysteine labelled on the sulfur with Sulfo-Cyanine5 from Lumiprobe GmbH catalogue number 13380, upon binding of a C-terminally labelled peptide derived from PUMA (UniProtKB® primary accession number Q9BXH1) having an aminoacid sequence (SEQ ID:04): [[…]] which is linked in C-terminal region to the amino acid X′ where X′ is cysteine labelled on the sulfur with TQ5WS from AAT Bioquest catalogue number 2079.
The addition of a compound which binds competitively to the same site as the peptide will result in an increase in the fluorescence intensity of the protein due to displacement of the fluorescence quencher.
An 11-point serial dilution of each compound was prepared in DMSO, the final buffer conditions were 10 mM 4-(2-hydroxyethyl)-1-piperazineethanesulfonic acid [HEPES], 150 mM NaCl, 0.05% Tween 20, pH 7.4 and 5% DMSO. The final protein concentration in the assay was 1 nM with the peptide present at 400 nM. The experiments were incubated for 2 hours at 23° C. before fluorescence intensity was measured on a Biotek SynergyNeo plate reader (Excitation 620 nm, emission 680 nm). […] The K1 values were determined from the IC50 values according to Cer et al, Nucleic Acids Res, 2009, Jul. 1; 37 (WebServer issue): W441-W445.

The next experiment concerns MOLT-4 cells. Nature of the experiment: MOLT-4 cell viability using MTT assay. The experiment is classed as cell-based. Conditions: 48 h exposure. Here is the method: MTT colorimetric assay is based on the mitochondrial reduction of tetrazolium salt by living cells.
Cells were cultured at 37° C. in a humidified atmosphere containing 5% CO2. […] At the end of incubation time, 15 μL of MTT solution (5 mg/ml) were added per well and the cells were incubated for another 4 h. […] IC50s were calculated using standard four-parametric curve fitting.
Background: Tetrazolium assays rely on reduction of a dye to a coloured formazan, in cell work by metabolically active cells.

As usually defined, the Ki is a measure of affinity in units of concentration, obtained from inhibition or displacement. Broadly, the IC50 is the concentration that inhibits the measured activity by half. A higher IC50 goes with a need for much substance.

His-His-(EK)-hsBCLXL(2-197)[N197C], sequence (Q07817 2-197 N197C): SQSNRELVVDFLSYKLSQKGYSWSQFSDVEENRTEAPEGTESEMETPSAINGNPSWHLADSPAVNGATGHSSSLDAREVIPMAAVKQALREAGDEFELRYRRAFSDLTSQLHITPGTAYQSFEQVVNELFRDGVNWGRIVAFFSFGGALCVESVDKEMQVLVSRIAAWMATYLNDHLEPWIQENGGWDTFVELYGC

For the molecule `Cc1c(Nc2nc3ccccc3s2)nnc2c1CCCN2c1nc(C(=O)O)c(CCCOc2ccc(C#CCN3CCNCC3)cc2F)s1` [Example 79, 2-[3-(1,3-Benzothiazol-2-ylamino)-4-methyl-6,7-dihydro-5H-pyrido[2,3-c]pyridazin-8-yl]-5-[3-[2-fluoro-4-(3-piperazin-1-ylprop-1-ynyl)phenoxy]propyl]thiazole-4-carboxylic acid], in experiment [1], the Ki came out at 0.0052 nM. The half-inhibitory concentration (IC50) with MOLT-4 cells (Homo sapiens, MOLT-4, 48 h) was 1.01 nM.
On to `CNCC#Cc1ccc(OCCCc2sc(N3CCCc4c3nnc(Nc3nc5ccccc5s3)c4C)nc2C(=O)O)cc1` [Example 80, 2-[3-(1,3-Benzothiazol-2-ylamino)-4-methyl-6,7-dihydro-5H-pyrido[2,3-c]pyridazin-8-yl]-5-[3-[4-[3-(methylamino)prop-1-ynyl]phenoxy]propyl]thiazole-4-carboxylic acid], for which, in experiment [1], the Ki was determined as 0.0065 nM. This molecule gave an IC50 in the experiment with MOLT-4 cells (Homo sapiens, MOLT-4, 48 h) of 0.575 nM.
Taken in the same sequence, the figures for `Cc1c(Nc2nc3ccccc3s2)nnc2c1CCCN2c1nc(C(=O)O)c(CCCOc2ccc(C#CC(C)(C)N3CCCC3)cc2F)s1` [Example 81, 2-[3-(1,3-Benzothiazol-2-ylamino)-4-methyl-6,7-dihydro-5H-pyrido[2,3-c]pyridazin-8-yl]-5-[3-[2-fluoro-4-(3-methyl-3-pyrrolidin-1-yl-but-1-ynyl)phenoxy]propyl]thiazole-4-carboxylic acid] were 0.015 nM and 0.175 nM.
With `Cc1c(Nc2nc3cccc(F)c3s2)nnc2c1CCCN2c1nc(C(=O)O)c(CCCOc2ccc(C#CCN(C)C)cc2F)s1` [Example 82, 5-[3-[4-[3-(Dimethylamino)prop-1-ynyl]-2-fluoro-phenoxy]propyl]-2-[3-[(7-fluoro-1,3-benzothiazol-2-yl)amino]-4-methyl-6,7-dihydro-5H-pyrido[2,3-c]pyridazin-8-yl]thiazole-4-carboxylic acid], in experiment [1], the Ki was determined as 0.023 nM. In addition, in the experiment with MOLT-4 cells (Homo sapiens, MOLT-4, 48 h), the half-maximal inhibitory concentration (IC50) came to 1.21 nM.
Regarding `Cc1c(Nc2nc3ccccc3s2)nnc2c1CCCN2c1nc(C(=O)O)c(CCCOc2ccc(C#CC(C)(C)N(C)C)cc2F)s1` [Example 83, 2-[3-(1,3-Benzothiazol-2-ylamino)-4-methyl-6,7-dihydro-5H-pyrido[2,3-c]pyridazin-8-yl]-5-[3-[4-[3-(dimethylamino)-3-methyl-but-1-ynyl]-2-fluoro-phenoxy]propyl]thiazole-4-carboxylic acid], in experiment [1], the Ki worked out at 0.026 nM. The IC50 with MOLT-4 cells (Homo sapiens, MOLT-4, 48 h) came to 0.573 nM.
For `Cc1c(Nc2nc3ccccc3s2)nnc2c1CCCN2c1nc(C(=O)O)c(CCCOc2ccc(C#CC3(N(C)C)CCCCC3)cc2F)s1` [Example 84, 2-[3-(1,3-Benzothiazol-2-ylamino)-4-methyl-6,7-dihydro-5H-pyrido[2,3-c]pyridazin-8-yl]-5-[3-[4-[2-[1-(dimethylamino)cyclohexyl]ethynyl]-2-fluoro-phenoxy]propyl]thiazole-4-carboxylic acid], in experiment [1], the Ki turned out to be 0.053 nM. Moreover, in the experiment on MOLT-4 cells (Homo sapiens, MOLT-4, 48 h), the IC50 came out at 1.83 nM.
In the case of `CCN(CC)CC#Cc1ccc(OCCCc2sc(N3CCCc4c3nnc(Nc3nc5ccccc5s3)c4C)nc2C(=O)O)c(F)c1` [Example 85, 2-[3-(1,3-Benzothiazol-2-ylamino)-4-methyl-6,7-dihydro-5H-pyrido[2,3-c]pyridazin-8-yl]-5-[3-[4-[3-(diethylamino)prop-1-ynyl]-2-fluoro-phenoxy]propyl]thiazole-4-carboxylic acid], the inhibitory constant (Ki) in experiment [1] came out at 0.044 nM. The molecule also yielded an IC50 in the experiment with MOLT-4 cells (Homo sapiens, MOLT-4, 48 h) of 0.416 nM.
Turning to `Cc1c(Nc2nc3ccccc3s2)nnc2c1CCCN2c1nc(C(=O)O)c(CCCOc2ccc(C#CCN(C(C)C)C(C)C)cc2F)s1` [Example 86, 2-[3-(1,3-Benzothiazol-2-ylamino)-4-methyl-6,7-dihydro-5H-pyrido[2,3-c]pyridazin-8-yl]-5-[3-[4-[3-(diisopropylamino)prop-1-ynyl]-2-fluoro-phenoxy]propyl]thiazole-4-carboxylic acid], in experiment [1], the Ki is 0.019 nM. Further, in the experiment with MOLT-4 cells (Homo sapiens, MOLT-4, 48 h), the IC50 stood at 1.5 nM.
As to `CCN(C)CC#Cc1ccc(OCCCc2sc(N3CCCc4c3nnc(Nc3nc5ccccc5s3)c4C)nc2C(=O)O)c(F)c1` [Example 88, 2-[3-(1,3-Benzothiazol-2-ylamino)-4-methyl-6,7-dihydro-5H-pyrido[2,3-c]pyridazin-8-yl]-5-[3-[4-[3-[ethyl(methyl)amino]prop-1-ynyl]-2-fluoro-phenoxy]propyl]thiazole-4-carboxylic acid], the Ki in experiment [1] was found to be 0.01 nM. The IC50 in the experiment on MOLT-4 cells (Homo sapiens, MOLT-4, 48 h) was found to be 0.181 nM.
For `Cc1c(Nc2nc3ccccc3s2)nnc2c1CCCN2c1nc(C(=O)O)c(CCCOc2ccc(C#CCN3C[C@@H](C)N[C@@H](C)C3)cc2F)s1` [Example 89, 2-[3-(1,3-Benzothiazol-2-ylamino)-4-methyl-6,7-dihydro-5H-pyrido[2,3-c]pyridazin-8-yl]-5-[3-[4-[3-[(3R,5S)-3,5-dimethylpiperazin-1-yl]prop-1-ynyl]-2-fluoro-phenoxy]propyl]thiazole-4-carboxylic acid], the Ki in experiment [1] was found to be 0.0028 nM. Further, in the experiment on MOLT-4 cells (Homo sapiens, MOLT-4, 48 h), half-maximal inhibition (IC50) required 0.57 nM.
With `Cc1c(Nc2nc3ccccc3s2)nnc2c1CCCN2c1nc(C(=O)O)c(CCCOc2ccc(C34CC(CN(C)C)(C3)C4)cc2F)s1` [Example 90, 2-[3-(1,3-Benzothiazol-2-ylamino)-4-methyl-6,7-dihydro-5H-pyrido[2,3-c]pyridazin-8-yl]-5-[3-[4-[1-[(dimethylamino)methyl]-3-bicyclo[1.1.1]pentanyl]-2-fluoro-phenoxy]propyl]thiazole-4-carboxylic acid], the Ki in experiment [1] was determined as 0.0022 nM. This molecule also came in with a half-maximal inhibitory concentration (IC50) in the experiment on MOLT-4 cells (Homo sapiens, MOLT-4, 48 h) of 0.46 nM.
Regarding `CNC(C)(C)C#Cc1ccc(OCCCc2sc(N3CCCc4c3nnc(Nc3nc5ccccc5s3)c4C)nc2C(=O)O)c(F)c1` [Example 91, 2-[3-(1,3-Benzothiazol-2-ylamino)-4-methyl-6,7-dihydro-5H-pyrido[2,3-c]pyridazin-8-yl]-5-[3-[2-fluoro-4-[3-methyl-3-(methylamino)but-1-ynyl]phenoxy]propyl]thiazole-4-carboxylic acid], in experiment [1], the inhibitory constant (Ki) stood at 0.0057 nM. Further, in the experiment on MOLT-4 cells (Homo sapiens, MOLT-4, 48 h), the IC50 was 0.359 nM.
`Cc1c(Nc2nc3ccccc3s2)nnc2c1CCCN2c1ccc(-c2cnn(CC34CC5(C)CC(C)(C3)CC(OCCNCC[C@@H](O)CO)(C5)C4)c2C)c(C(=O)O)n1` [Example 93, 6-{3-[(1,3-benzothiazol-2-yl)amino]-4-methyl-6,7-dihydropyrido[2,3-c]pyridazin-8(5H)-yl}-3-(1-{[3-(2-{[(3R)-3,4-dihydroxybutyl]amino}ethoxy)-5,7-dimethyladamantan-1-yl]methyl}-5-methyl-1H-pyrazol-4-yl)pyridine-2-carboxylic acid]: the Ki in experiment [1] was 0.0024 nM. The IC50 in the experiment on MOLT-4 cells worked out at 14.2 nM.
Consider `CNCCOC12CC3(C)CC(C)(CC(Cn4ncc(-c5ccc(N6CCCc7c6nnc(Nc6nc8ccccc8s6)c7C)nc5C(=O)O)c4C)(C3)C1)C2` [Example 94, 6-{3-[(1,3-benzothiazol-2-yl)amino]-4-methyl-6,7-dihydropyrido[2,3-c]pyridazin-8(5H)-yl}-3-[1-({3,5-dimethyl-7-[2-(methylamino)ethoxy]adamantan-1-yl}methyl)-5-methyl-1H-pyrazol-4-yl]pyridine-2-carboxylic acid], for which the Ki in experiment [1] stood at 0.0015 nM. Further, the IC50 with MOLT-4 cells (Homo sapiens, MOLT-4, 48 h) worked out at 0.616 nM.
